Source: patent US10350240B2, “Lanthanum carbonate hydroxide, lanthanum oxycarbonate and methods of their manufacture and use” (Spectrum Pharmaceuticals, Inc., priority 2010, dated 2019)

Key:
[1] = Phosphate binding at buffered pH 4.5 in dissolution unit, ICP-OES (% reaction completion); conditions: Renazorb-014 (LDOC), second block; 4.5 pH @30 min
Text: For each run, both the Renazorb-013 (LCH) and the Renazorb-014 (LDOC) were characterized. Renazorb-013 is important to characterize because its features (particularly physical features such as BET-Surface-Area, Particle Size Distribution, crystalline phase by XRD, bulk density) strongly impact the same critical features of Renazorb-014. The typical characterization suite of Renazorb-013 and Renazorb-014 includes BET-Surface-Area (BET-SA), Particle Size Distribution (PSD), crystalline phase by XRD, bulk density, chloride content, lanthanum content, carbon content. On top of this Renazorb-014 is tested for phosphate binding performance (4.5 pH @30 min). Assays such as La, C, Cl are typically fairly consistent and not under scrutiny.
The following procedure may be used to determine the phosphate binding kinetics/capacity in solutions at a buffered pH=4.5 for lanthanum dioxycarbonate.
Briefly, a heated, acetate buffered acidic solution, adjusted to a known pH and containing a known amount of phosphate is stirred constantly throughout the test in a dissolution unit. To this stirred solution is added a known amount of lanthanum compound at time=0. […] All samples are diluted in the proper matrix and analyzed for phosphorus using an Inductively Coupled Plasma instrument equipped with an Optical Emission spectrophotometer detector (ICP-OES). […]

BET surface area = type: physicochemical; conditions: Renazorb-014 (LDOC), second block
Text: By “relatively greater” it is meant that if the processes of the '782 patent and those of the present invention were run under generally identical conditions but with, for example, ammonium carbonate or bicarbonate used instead of sodium carbonate, the surface area, as measured by BET or otherwise, of the LCH or lanthanum oxycarbonates of the present invention would be even higher than that resulting from the practice of the '782 patent. The ammonium carbonate process of the present invention should yield BET surface areas (SA) in the 1 to 100 m^2/g range for LCH. […] To this end, as used herein “relatively greater BET surface area” refers to the greater BET surface area of the LDOC compound of the present invention when compared to the respective compound in U.S. Pat. No. 7,588,782 when made using similar ingredients, and under similar conditions but using the process described in that patent. As noted above, both processes are capable of producing very fine particles/high surface area. Again without wishing to be bound by any particular theory of operation, it may be that the greater porosity of the materials resulting from the present invention may effectively increase the overall surface area (or more reactive surfaces) allowing for, inter alia, improved binding kinetics. This is predicated on the porosity of individual or primary particles, not aggregates. Thus, it is believed that the primary particles of the invention provide relatively greater porosity than would be measured for particles made in accordance with the '782 patent. […] Furthermore, “porosity” as used herein means cumulative adsorption pore volume determined using a static pressure surface area analyzer with nitrogen as the adsorbate and calculating the pore size by The Barrett, Joyner, and Halenda (BJH) method (Barrett E. P., Loyner L. G. and Halenda P. P., The determination of pore volume and area distributions in porous substances. I. Computations from nitrogen isotherms, J. Am. Chem. Soc. 73 (1951) pp. 373-380).
As contemplated herein, BET surface area of the lanthanum compounds disclosed herein may be determined as provided in U.S. Pat. No. 7,588,782.

[2] = Laser particle size (Coulter LS230), aggregate D10/D50/D90 by volume; type: physicochemical; conditions: Renazorb-014 (LDOC), second block
Text: Aggregate size as described herein is either determined by scanning electron microscopy (SEM) or laser diffraction on a Coulter LS230. […] But these appear more aggregated.
Laser particle size data can be produced using, for example, a LS230 Laser Particle Size Analyzer manufactured by Coulter.
Average the runs using the LS230 software and have the software calculate the desired volume D results (i.e. for D1, D10, D50, D90, and D99).
The Refractive Index (RI) of a solid is required to perform an accurate laser PSD analysis for particles under 1 μm. The RI of the test materials were not listed in literature at the time this method was developed. […] Therefore an RI of 2.1 was chosen.

Bulk density = type: physicochemical; conditions: Renazorb-014 (LDOC), second block
Experimental: Bulk density in accordance with the invention can be determined by standard methods.
Graduated Cylinder Tare Weight was determined to be 225 g. 75 grams of sample was sieved into the graduated cylinder. The Gross Weight was determined to be 299.4 g. The volume of this sample was measured to be 141 mL. Thus, the Bulk Density of the powder is: Bulk Density (g/cc)=(299.4−225)/141=74.4/141=0.5277 g/cc Rounding this value to two decimal places gives a final reported value of 0.53 g/cc. 9.2 RSD=(R1−R2)×100/R1 where: RSD=Relative Standard Deviation (%) R1 & R2=Result of individual repeat (g/cc) 9.3 SR=R×100/V where: SR=Standard Recovery (%) R=Result for Reference Standard (g/cc) V=Historical average for standard (g/cc)

SMILES: O=C([O-])[O-].[La+3].[La+3].[O-2].[O-2] [Batch 110508, lanthanum dioxycarbonate]
- Po4 binding @4.5 pH (rxn comp. %) [1]: 92%
- Surface Area (BET surface area): 16.7 m^2/g
- D10 Sonicated SOP-QC-GMP-2402 [2]: 6.6 um
- D50 Sonicated SOP-QC-GMP-2402 [2]: 50 um
- D90 Sonicated SOP-QC-GMP-2402 [2]: 151 um
- Bulk Density (Bulk density): 0.56 g/cc
